Test results: PubChem BioAssay AID2060508 (Molecular Pharmacology Branch, DTP, NCI, 2025)

Tested on: 454973-116-R2-J3-PDC spheroids, viability, % test/control
Experiment: Anticancer human tumor 454973-116-R2-J3-PDC patient-derived pancreatic carcinoma cell line growth inhibition [GQUAD]
Conditions: spheroids with HUVEC and MSC; for IC50: curve of first compound; for viability, T/C: stronger effect = lower value; active = viability on the fitted dose curve at most 10% of control; inactive = the rest
In short: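 Viability of tumor cells grown as complex spheroids with endothelial and stromal cells, exposed to drug combinations. Top concentration at or near clinical Cmax (else 10 microM), diluted in half-log increments.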

[1] = second compound 0.0316 µM, first compound 0.0316 µM
[2] = second compound 0.0316 µM, first compound 0.1 µM
[3] = second compound 0.0316 µM, first compound 0.316 µM
[4] = second compound 0.0316 µM, first compound 1 µM
[5] = second compound 0.0316 µM, first compound 3.16 µM
[6] = second compound 0.0316 µM, first compound 10 µM
[7] = second compound 0.1 µM, first compound 0.0316 µM
[8] = second compound 0.1 µM, first compound 0.1 µM
[9] = second compound 0.1 µM, first compound 0.316 µM
[10] = second compound 0.1 µM, first compound 1 µM
[11] = second compound 0.1 µM, first compound 3.16 µM
[12] = second compound 0.1 µM, first compound 10 µM
[13] = second compound 0.316 µM, first compound 0.0316 µM
[14] = second compound 0.316 µM, first compound 0.1 µM
[15] = second compound 0.316 µM, first compound 0.316 µM
[16] = second compound 0.316 µM, first compound 1 µM
[17] = second compound 0.316 µM, first compound 3.16 µM
[18] = second compound 0.316 µM, first compound 10 µM
[19] = second compound 1 µM, first compound 0.0316 µM
[20] = second compound 1 µM, first compound 0.1 µM
[21] = second compound 1 µM, first compound 0.316 µM
[22] = second compound 1 µM, first compound 1 µM
[23] = second compound 1 µM, first compound 3.16 µM
[24] = second compound 1 µM, first compound 10 µM
[25] = second compound 3.16 µM, first compound 0.0316 µM
[26] = second compound 3.16 µM, first compound 0.1 µM
[27] = second compound 3.16 µM, first compound 0.316 µM
[28] = second compound 3.16 µM, first compound 1 µM
[29] = second compound 3.16 µM, first compound 3.16 µM
[30] = second compound 3.16 µM, first compound 10 µM
[31] = second compound 10 µM, first compound 0.0316 µM
[32] = second compound 10 µM, first compound 0.1 µM
[33] = second compound 10 µM, first compound 0.316 µM
[34] = second compound 10 µM, first compound 1 µM
[35] = second compound 10 µM, first compound 3.16 µM
[36] = second compound 10 µM, first compound 10 µM
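Note: spheroids exposed to compounds for seven days.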
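Throughout, for viability, T/C: 100% = DMSO vehicle control viability.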

O=C(c1cc(Cc2n[nH]c(=O)c3ccccc23)ccc1F)N1CCN(C(=O)C2CC2)CC1 + CN(C)c1ccc(Nc2c3ccc(NC(=O)CCN4CCCC4)cc3nc3cc(NC(=O)CCN4CCCC4)ccc23)cc1
> 10 µM: IC50 (second compound 0.0316 µM) | IC50 (second compound 0.1 µM) | IC50 (second compound 0.316 µM) | IC50 (second compound 1 µM) | IC50 (second compound 3.16 µM) | IC50 (second compound 10 µM)
inactive: viability, T/C [1] 111% | viability, T/C [2] 95% | viability, T/C [3] 101% | viability, T/C [4] 97.3% | viability, T/C [5] 85.1% | viability, T/C [6] 61.4% | viability, T/C [7] 108% | viability, T/C [8] 96.7% | viability, T/C [9] 99.3% | viability, T/C [10] 93.1% | viability, T/C [11] 79.6% | viability, T/C [12] 60.8% | viability, T/C [13] 104% | viability, T/C [14] 91.6% | viability, T/C [15] 93.6% | viability, T/C [16] 88.2% | viability, T/C [17] 82.6% | viability, T/C [18] 65.1% | viability, T/C [19] 88.5% | viability, T/C [20] 91.9% | viability, T/C [21] 98.2% | viability, T/C [22] 74.5% | viability, T/C [23] 70.7% | viability, T/C [24] 59.3% | viability, T/C [25] 90.7% | viability, T/C [26] 91.7% | viability, T/C [27] 92.7% | viability, T/C [28] 74.1% | viability, T/C [29] 75.2% | viability, T/C [30] 57.1% | viability, T/C [31] 75.8% | viability, T/C [32] 75.2% | viability, T/C [33] 67.9% | viability, T/C [34] 67.4% | viability, T/C [35] 63.5% | viability, T/C [36] 51.7%

CC1COCCN1c1cc(-c2ccnn2C)c2ccnc(-c3ccn[nH]3)c2n1 (stereo unspecified) + Cc1[nH]c2ccc(F)cc2c1-c1nc2c3cccnc3c3ncccc3c2[nH]1
inactive: viability, T/C [1] 97.4% | viability, T/C [2] 66.8% | viability, T/C [3] 26.6% | viability, T/C [4] 23.2% | viability, T/C [5] 26.3% | viability, T/C [6] 23.6% | viability, T/C [7] 98.1% | viability, T/C [8] 67.1% | viability, T/C [9] 30.6% | viability, T/C [10] 23.3% | viability, T/C [11] 24% | viability, T/C [12] 26.4% | viability, T/C [13] 97.8% | viability, T/C [14] 65.8% | viability, T/C [15] 31% | viability, T/C [16] 20.6% | viability, T/C [17] 23.4% | viability, T/C [18] 21.9% | viability, T/C [19] 87% | viability, T/C [20] 62% | viability, T/C [21] 32.2% | viability, T/C [22] 18.7% | viability, T/C [23] 20.3% | viability, T/C [24] 22.8% | viability, T/C [25] 92.2% | viability, T/C [26] 52.9% | viability, T/C [27] 30.2% | viability, T/C [28] 20.8% | viability, T/C [29] 23.5% | viability, T/C [30] 24.9% | viability, T/C [31] 81.6% | viability, T/C [32] 53.1% | viability, T/C [33] 29.8% | viability, T/C [34] 18.3% | viability, T/C [35] 23.1% | viability, T/C [36] 22.6%
0.168 µM: IC50 (second compound 0.316 µM)
0.158 µM: IC50 (second compound 1 µM)
0.116 µM: IC50 (second compound 3.16 µM)
0.162 µM: IC50 (second compound 0.0316 µM)
0.171 µM: IC50 (second compound 0.1 µM)
0.117 µM: IC50 (second compound 10 µM)

COc1cccc2c1C(=O)c1c(O)c3c(c(O)c1C2=O)CC(O)(C(=O)CO)CC3OC1CC(N)C(O)C(C)O1 (stereo unspecified) + CN(C)c1ccc(Nc2c3ccc(NC(=O)CCN4CCCC4)cc3nc3cc(NC(=O)CCN4CCCC4)ccc23)cc1
0.41 µM: IC50 (second compound 10 µM)
0.242 µM: IC50 (second compound 0.1 µM)
0.236 µM: IC50 (second compound 0.0316 µM)
0.253 µM: IC50 (second compound 1 µM)
inactive: viability, T/C [1] 104% | viability, T/C [2] 72.1% | viability, T/C [3] 33% | viability, T/C [4] 33.2% | viability, T/C [5] 20.6% | viability, T/C [7] 98.9% | viability, T/C [8] 71.8% | viability, T/C [9] 36.3% | viability, T/C [10] 31.1% | viability, T/C [11] 20.8% | viability, T/C [13] 100% | viability, T/C [14] 69.8% | viability, T/C [15] 33.4% | viability, T/C [16] 40.5% | viability, T/C [17] 22.4% | viability, T/C [19] 97.5% | viability, T/C [20] 63% | viability, T/C [21] 36% | viability, T/C [22] 42.2% | viability, T/C [23] 29.4% | viability, T/C [24] 3.18% | viability, T/C [25] 88.3% | viability, T/C [26] 72.6% | viability, T/C [27] 40.2% | viability, T/C [28] 44.2% | viability, T/C [29] 27.9% | viability, T/C [31] 79.1% | viability, T/C [32] 61.1% | viability, T/C [33] 44.1% | viability, T/C [34] 47.2% | viability, T/C [35] 31.1%
0.255 µM: IC50 (second compound 0.316 µM)
active: viability, T/C [6] 1.74% | viability, T/C [12] 2.34% | viability, T/C [18] 2.19% | viability, T/C [30] 2.27% | viability, T/C [36] 3.01%
0.405 µM: IC50 (second compound 3.16 µM)
